Tested on: caspase-3
Experiment: Immunoblotting for caspase-3 activation in infected melanoma cells
Type: cell-based, human
Conditions: delta-PK infected cultures, PD150606 100 μM, 24 hrs p.i.
Text: FIG. 6. Calpain and caspase-7 and caspace-3 are activated in delta-PK infected melanoma cells. […] Data were quantified by densitometry and expressed as the ratio of the p76/p80 and p28 densitometric units +/−SD, respectively. Representatives of three replicate experiments are shown (***p<0.001 vs. Mock). B. The immunoblots in FIG. 6A were sequentially stripped and re-probed with antibodies to activated caspase-7, activated caspase-3, and actin. Data were quantified by densitometry and results are expressed as densitometric units +/−SD (**p<0.01, ***p<0.001 vs. Mock). C. […]
Cultured cells were lysed with radioimmunoprecipitation buffer [RIPA; 20 mM Tris-HCl (pH 7.4), […], 1% Nonidet P-40, 0.1% sodium dodecyl sulfate (SDS), 0.5% sodium deoxycholate] supplemented with protease and phosphatase inhibitor cocktails (Sigma-Aldrich), and sonicated twice for 30 seconds at 25% output power with a sonicator ultrasonic processor (Misonix, Inc., Farmingdale, N.Y.). […] Protein concentration was determined by the bicinchoninic assay (Pierce, Rockford, Ill.), and 100 μg protein samples were resolved by SDS-polyacrylamide gel elecrophoresis (SDS-PAGE) and transferred to polyvinylidene fluoride membranes followed by immunoblotting. […] Quantitation was by densitometric scanning with the Bio-Rad GS-700 imaging densitometer (Bio-Rad, Hercules, Calif.). […]

With O=C(O)/C(S)=C/c1ccc(I)cc1 [PD150606] the “effect of inhibitor on levels of caspase-3p17 cleavage product” value was “increased”.

Source: patent publication US8414885B2, “Methods and compositions for treating cancer” (priority 2009, dated 2013)
